Data: patent publication US8278359B2, “Compositions containing amines and use thereof to treat acne or reduce the appearance of oil or pores on the skin” (Johnson & Johnson Consumer Companies, Inc., priority 2005, dated 2012)
Marks after values point to notes of the source that are not given here.

What was measured:
Human keratinocytes [1] = test: Visual contraction of keratinocytes by real time microscopy (cell area); type: cell-based; conditions: 0.1%
Description: Human keratinocytes and Epilife culture media (Cascade Biologics, Portland, Oreg.) were cultured at 37° C. in a humidified atmospheres of 5% CO2/95% air. Glass Cover Slides (Applied Biophysics, Troy, N.Y.) were coated with 0.01 mg/ml Laminin V (Sigma Aldirch, St Louis, Mo.) in sterile Phosphate Buffered Saline (Gibco Life Sciences, San Diego, Calif.). Human keratinocytes were prepared at a density of 0.125×10^6 cells/mL in Epilife culture media. Human keratinocytes were plated at 3.75×10^4 cells/well on a 6 well plate containing Laminin coated coverslips and cultured at 37° C. in a humidified atmospheres of 5% […] for 48 hrs. Individual coverslips were transferred to a open bath imaging chamber (Warner Instruments, Hamden, Conn.) mounted on a Leica inverted microscope (Leitz DM1L) with an attached CCD camera. Cells were perfused with Hank's Buffered Salt Solution (HBSS; Gibco Life Sciences, San Diego, Calif.) at flow rate of 1 ml/min using a peristaltic pump (Cole Parmer, Vernon Hills, Ill.). […] Cell area was determined using Scion Image software (Version 4.0.2), and reductions in cell area were reported as the ratio of cell area after treatment to cell area prior to treatment

facial skin pores = test: Clinical study: reduction of pore size on facial skin, parallel-polarized image analysis; type: in vivo, human; conditions: composition containing 2.5% THPED, 45 minutes
Excerpt: A composition containing 2.5% THPED was compared to a corresponding placebo composition for the reduction of pore size on facial skin. 31 subjects were enrolled in the study, with all of the subjects completing the protocol. Table XVII discloses the formulation of the two compositions.
About 0.45-0.52 g of each composition was applied on one side of the face for each subject and allowed to dry. Each composition was applied only once to the area for the duration of this study. At baseline and 45 minutes after composition application, parallel-polarized digital images were taken of the entire face to document changes observed in pore size. Pore Size Reduction was evaluated using computer analysis of Parallel-Polarized images of the face.

IL-1A = test: UV-induced IL-1A release on reconstituted epidermis (EPI 200 HCF epidermal equivalents); type: cell-based, human; conditions: 0.5% w/v topical
Description: The effect of diamines was evaluated for topical anti-inflammatory activity on human epidermal equivalents. Epidermal equivalents (EPI 200 HCF), multilayer and differentiated epidermis consisting of normal, human epidermal keratinocytes, were purchased from MatTek (Ashland, Mass.). Upon receipt, epidermal equivalents were incubated for 24 hours at 37° C. in maintenance medium without hydrocortisone. Equivalents were topically treated (2 mg/cm^2) with compounds in 70% ethanol/30% propylene glycol vehicle at the indicated concentration 2 hours before exposure to solar ultraviolet light (1000 W-Oriel solar simulator equipped with a 1-mm Schott WG 320 filter; UV dose applied: 70 kJ/m^2 as measured at 360 nm). Equivalents were incubated for 24 hours at 37° C. with maintenance medium then supernatants were analyzed for IL-1A cytokine release using commercially available kits (Upstate Biotechnology, Charlottesville, Va.).

Human keratinocytes [2] = test: Electric Cell-substrate Impedance Sensing (ECIS) capacitance, keratinocyte contraction; type: cell-based; conditions: capacitance integrated over 5 hrs, 40,000 Hz, pH 7.2-7.3
Excerpt: Electrical changes due to the presence of a cell layer can be used to calculate cell morphological parameters including the barrier function of the cell layer (the spacing between the ventral side of the cell and the substratum) and the cell membrane capacitance (Giaever and Keese, Proceedings of National Academy of Sciences 88, 7896, 1991).
Current flowing between a reference electrode, onto which cells or cell cultures may be attached, and a larger counter electrode using normal culture medium as the electrolyte can be used to detect changes in cell morphological parameters. In the absence of cells on the electrode, the current flows unrestrained from the surface of the electrodes. In the presence of cells attached and spread upon the electrode, the current must now flow in the spaces under and between the cells, as the cell membrane act as insulators.
The electrical changes of living, viable cells can be sampled rapidly, in real time, over an extended period of time, and the measurements are the measurement is non-invasive. An example of this technology is the Electric Cell-substrate Impedance Sensing System (ECIS) available from Applied Biophysics (Troy, N.Y.). […]
Human keratinocytes and Epilife culture media (Cascade Biologics, Portland, Oreg.) were cultured at 37° C. in a humidified atmospheres of 5% CO2/95% air. […] Capacitance changes (in nanofarads, nF) of keratinocytes were measured using a Electric Cell-substrate Impedance Sensing System (ECIS) Model 1600R (Applied Biophysics, Troy, N.Y.) using the method of Wegener and co-workers (Wegener J, Keese C R, Giaever I, Exp Cell Res. 259:158-166, 2000) at a frequency of 40,000 Hz. Capacitance readings are inversely related to the contact area of a cell onto the ECIS electrode array, the greater the cell area contacting the electrode the smaller the capacitance readings (Wegener J, Keese C R, Giaever I, Exp Cell Res. 259:158-166, 2000). Conversely as a cell contracts or shrinks, the contact area of the cell onto the ECIS electrode array decreases, resulting in an increase in the capacitance readings. […]

What does the source list for `CC(O)CN(CCN(CC(C)O)CC(C)O)CC(C)O` (stereo not shown) [THPED, N,N,N′,N′-Tetrakis(2-hydroxypropyl)ethylenediamine]?
Visual Contraction of Human Keratinocytes (reduction in cell area, Mean ± Std Dev) (Human keratinocytes [1]; 2 Min): 32.9% ±; Visual Contraction of Human Keratinocytes (reduction in cell area, Mean ± Std Dev) (Human keratinocytes [1]; 10 Min): 37.9% ± 10.7%; Visual Contraction of Human Keratinocytes (reduction in cell area, Mean ± Std Dev) (Human keratinocytes [1]; 20 Min): 47.3% ± 12.7%; % Of Pore Size Reduction over Placebo (facial skin pores; single application, subject responders): 7.11%*; greater pore reduction response than the placebo alone (facial skin pores): 19.4%; Mean +/− Std Dev of IL-1A Release (IL-1A; 2 hours before UV (70 kJ/m^2), 24 hours after): 357.3 ± 92.1 ng/mL; inhibition at 0.5 % strength (IL-1A; Homo sapiens, 2 hours before UV, vs UV, Vehicle, read-out: Percent Inhibition of Skin Inflammation): 0%; Electrical Capacitance Contraction of Human Keratinocytes (AUC, Mean ± Std Dev) (Human keratinocytes [2]; 0.01% V/V): 29.2 ± 3.2; Electrical Capacitance Contraction of Human Keratinocytes (AUC, Mean ± Std Dev) (Human keratinocytes [2]; 0.05% V/V): 35.1 ± 5.3; Electrical Capacitance Contraction of Human Keratinocytes (AUC, Mean ± Std Dev) (Human keratinocytes [2]; 0.1% V/V): 44.5 ± 9.1
